Key:
[1] = system: Enterococcus faecalis ATCC 29212; test: Broth microdilution MIC (CLSI), Ca2+ adjusted Mueller Hinton broth with 4% human serum albumin; assay type: cell-based
Method: (§1) Herein, the minimum inhibitory concentration for the growth inhibition was determined by cultivation of the bacteria in Ca^2+ adjusted Mueller Hinton broth (broth microdilution method) according to the CLSI (previously NCCLS) rules (National Committee for Clinical Laboratory Standards. 2003. Methods for dilution antimicrobial susceptibility tests for bacteria that grow aerobically; approved standard - 6th ed. Document M7-A6. Clinical and Laboratory Standards Institute, Wayne, PA, USA). […] The Gram-positive strains tested for the cultivation methods were: • Staphylococcus aureus ATCC 29213 • Enterococcus faecalis ATCC 29212
(§2) The following inocula were incubated: Table 3

[2] = system: Staphylococcus aureus ATCC 29213; test: as above; assay type: cell-based
Method: as §1, §2

[3] = system: Streptococcus spp., Staphylococcus spp. and Enterococcus spp.; details: including antibiotic resistant strains (VRE, MRSA); cited from earlier work
[4] = fat emulsion formulation with an oil phase of 8%; cited from earlier work

Substance: ramoplanin
- Antibiotic activity (MIC) ([1]; Ramoplanin : SBE-β-CD 1:0): 0.5 mg/L
- Antibiotic activity (MIC) ([1]; Ramoplanin : SBE-β-CD 1:2): 0.5 mg/L
- Antibiotic activity (MIC) ([1]; Ramoplanin : SBE-β-CD 1:10): 0.5 mg/L
- Antibiotic activity (MIC) ([2]; Ramoplanin : SBE-β-CD 1:0): 0.5 mg/L
- Antibiotic activity (MIC) ([2]; Ramoplanin : SBE-β-CD 1:2): 0.5 mg/L
- Antibiotic activity (MIC) ([2]; Ramoplanin : SBE-β-CD 1:10): 0.5 mg/L
- general MICs (Minimal Inhibition Concentrations) [3]: below 1 µg/ml
- effectiveness in septicaemia mouse models [4]: effective
